Test results from patent publication US7618958B2, “Stereospecific anxiolytic and anticonvulsant agents with reduced muscle-relaxant, sedative-hypnotic and ataxic effects” (WISYS Technology Foundation, Inc., priority 2004, dated 2009).

Tested on: male Wistar rats
Test: Elevated plus-maze in rats
Assay type: in vivo, rat
Conditions: for Open Entries / Closed Entries / Total Distance Travelled (m) / Total Entries / % Open Time / % Open Entries / Time in open arms / Time in closed arms: rats, mean; for Open Entries: SOLVENT mean 2.57; for Closed Entries: SOLVENT mean 7.14; for Total Distance Travelled (m): SOLVENT mean 9.30; for Total Entries: SOLVENT mean 9.71; for % Open Time: SOLVENT mean 20.43; for % Open Entries: SOLVENT mean 25.57; for Time in open arms: SOLVENT mean 50.29; for Time in closed arms: SOLVENT mean 196.29
Method: Except where noted, the methods used were those of Miroslav M., et al., (2004) Pharmacology, Biochemistry and Behavior 79: 279-290. Experiments were carried out on male Wistar rats (Military Farm, Belgrade, Serbia and Montenegro), weighing 200-240 g. All procedures in the study conformed to EEC Directive 86/609 and were approved by the Ethical Committee on Animal Experimentation of the Medical Faculty in Belgrade. The rats were housed in transparent plastic cages, six animals per cage, and had free access to pelleted food and tap water before and after drug administration. The temperature of the animal room was 22±1° C., the relative humidity 40-70%, the illumination 120 1× and the 12/12-h light/dark period (light on at 06:00 h). All handling and testing took place during the light portion of the cycle. Throughout the study the animals were used only once.
Midazolam and flumazenil were generously donated from F. Hoffman-La Roche (Basel, Switzerland). Zolpidem was purchased from Toronto Research Chemicals (North York, Canada) and DMCM from Research Biochemicals (Natick, Mass., USA). All drugs were dissolved/suspended with the aid of sonication in a solvent containing 85% distilled water, 14% propylene glycol and 1% Tween 80™, and were administered intraperitoneally, in a volume of 1 ml/kg, 20 min before testing. Doses are expressed as the base forms of the drugs. In the cases of combined treatment, agonists were administered at separate sites, immediately after the antagonist. Each animal received a total volume of 2 ml/kg of compounds tested or appropriate vehicles, at two different injection sites.
The test apparatus was constructed of sheet metal, with a black rubber floor. It consisted of a maze elevated to a height of 50 cm with two open (50×10 cm) and two enclosed arms (50×10×40 cm), connected by junction area (central platform) measured 10×10 cm. Although the floor was rubberized, a ledge of sheet metal (0.3 cm high) surrounding the open arms was added, to avoid rats falling off. The illumination in the experimental room consisted of one red neon tube fixed on the ceiling, giving light intensity of 10 1× on the surface of the arms. The experiments were carried out during the diurnal phase (between 08:00 and 12:00 h). At the beginning of the experiment, rats were placed in the centre of the maze, facing one of the enclosed arms and observed for 5 min. The observer sat in the same room 1 m from the maze. After each trial, the maze was cleaned with dry and wet towels. Throughout the study, the number of rats per treatment group was 8-14. Each experiment was run over 4 consecutive days, with three control rats per day; as there was no difference in plus-maze activity among control subgroups, they were pooled in a single control group (n=12).
All numerical data presented in the figures were given as the mean±S.E.M. Each dose-response curve (agonist or antagonist alone or agonist+antagonist) was assessed by a one-way ANOVA. If the ANOVA was significant, each treatment condition was compared with the appropriate solvent control by a Dunnett's test (a=0.05). In case of significant effect in the number of enclosed arm entries, an analysis of covariance (ANCOVA) was performed in the anxiety-related parameters using the number of enclosed arm entries as covariate. Interactions between the agonists and antagonists were analyzed separately with a two-way ANOVA [factors: agonist dose versus cotreatment (an antagonist or saline)]; pairwise comparisons for the assessment of the antagonist influence on the agonist effects were conducted by Tukey's test, one of the methods recommended even in the absence of an overall significant F-test (Wilcox R R. New designs in analysis of variance. Annu Rev Psychol 1987; 38: 29-60). Statistical analyses were performed with commercial statistical software for PC, Stat for Windows R. 5.0.

[1] = SH-053-S 20 mg/kg ip, N 6, t test p = 0.668
[2] = SH-053-S 30 mg/kg ip, N 7, t test p ≦ 0.05

## C#Cc1ccc2c(c1)C(c1ccccc1)=NC(C)c1c(C(=O)OCC)ncn1-2 (stereo not drawn) [SH-053-S—CH3, 8-Ethynyl-4-methyl-6-phenyl-4H-2,5,10b-triaza-benzo[e]azulene-3-carboxylic acid ethyl ester]
[1]
  Open Entries: 3.00
  Time in open arms: 61.83
SH-053-S 20 mg/kg ip, N 6, t test p = 0.059
  Closed Entries: 5.33
SH-053-S 20 mg/kg ip, N 6, t test p = 0.145
  Total Distance Travelled (m): 7.49 m
SH-053-S 20 mg/kg ip, N 6, t test p = 0.349
  Total Entries: 8.33
SH-053-S 20 mg/kg ip, N 6, t test p = 0.426
  % Open Time: 27.50%
SH-053-S 20 mg/kg ip, N 6, t test p = 0.265
  % Open Entries: 34.17%
SH-053-S 20 mg/kg ip, N 6, t test p ≦ 0.05
  Time in closed arms: 144.67
[2]
  Open Entries: 4.57
  % Open Time: 36.00%
  % Open Entries: 43.71%
  Time in open arms: 93.71
SH-053-S 30 mg/kg ip, N 7, t test p = 0.481
  Closed Entries: 6.29
SH-053-S 30 mg/kg ip, N 7, t test p = 0.910
  Total Distance Travelled (m): 9.48 m
SH-053-S 30 mg/kg ip, N 7, t test p = 0.525
  Total Entries: 10.86
SH-053-S 30 mg/kg ip, N 7, t test p = 0.116
  Time in closed arms: 164.71
At the dose tested
  effects on locomotor activity (summary of FIG. 1, FIG. 2, Tables 3-6): no measurable effects on locomotor activity
rat, in vivo
  anxiolytic activity (summary of FIG. 1, FIG. 2, Tables 3-6): has anxiolytic activity
